Measured values taken from patent publication US8143237B2, “Anti-cancer drugs, and uses relating for malignant melanoma and other cancers” (Kasina Laila Innova Pharmaceuticals Private Limited, priority 2009, dated 2012).
Converted amounts (≈) assume the structure as drawn. “Also recorded” adds a separate entry of the source.

Assays:
[1] = tested on: B16 F0 melanoma xenograft; assay: B16 F0 melanoma xenograft model of C57B6J mice; assay type: in vivo, mouse; details: fourteen days, tumor weight
Experimental: In vivo efficacy of compound 1 against melanoma growth was evaluated in B 16 F0 melanoma xenograft model of C57B6J mice. C57B6J mice of 6 weeks age (body weight 18-22 g) were purchased from National Institute of Nutrition (NIN), Hyderabad (India). Animals study protocols were approved by Institutional Ethics Committee (IAEC). All the studies were performed in compliance with the Committee for the Purpose of Control and Supervision of Experiments on Animals (CPCSEA) guidelines and OECD guidelines. Animals were allowed free access to standard feed and provided charcoal filtered and UV exposed water ad libitum. The animals were maintained at a controlled temperature (24-26° C.), humidity (45-70%), and 12 h/12 h of light/dark cycle.
To induce the melanoma tumor formation, sub-confluent B16F0 cells were harvested by brief trypsinization and 1×10^6 cells were injected subcutaneously in 0.2 ml phosphate-buffered saline. Drug treatment was started after development of palpable tumors (3-5 days after implantation of the cells). Drugs were prepared in phosphate-buffered saline (10% DMSO, v/v) and either 75 mg/kg of DTIC or 25 mg/kg of compound 1 was administered daily through intra-peritoneal route. Vehicle treated control animals received only 10% DMSO in phosphate buffered saline. After fourteen days of treatment, the animals were sacrificed by CO2 inhalation and tumors were excised and weighed.

[2] = tested on: human malignant melanoma A375 cells; assay: MTT based cell proliferation assay, A375 cells; details: A-375, 72 h, three days incubation, read-out: Cell proliferation inhibition in A375 cells, IC50
Experimental: (§1) The cytotoxic efficacies of the various selenopheno triazene compounds (compounds 1 to 16) was evaluated in both human malignant melanoma A375 cells and mouse malignant melanoma B16 F0 cells by MTT cell proliferation assay kit (Roche Applied Sciences, Germany). The assay was carried out according to the instruction provided by the vendor. Briefly, equal numbers of cells was plated in 96-well flat-bottomed plates and were incubated with both DTIC and the test compounds (compounds 1 to 16) at various concentrations for a period of three days. […] Finally, the cells were solubilized by adding solubilizing solution and allowed to incubate at 37° C. overnight. After complete solubilization of the formazan crystals, the absorbance was read at 540 nm in a microplate reader (BioRad, USA).

[3] = tested on: B16F0 cells; assay: B16 F0 mouse melanoma cell colony formation assay; assay type: cell-based; details: 8 days
Experimental: Inhibitory efficacy in clone formation of the Compound 1 and DTIC was tested by following the procedure described earlier with some modifications. Briefly, B 16F0 cells were harvested and seeded into 6-well plates (100 cells/ml). The cells were allowed to grow for 4 days and thereafter, the cells were incubated with DMEM containing either 0.1% DMS 0 or 100 μg/ml DTIC or different concentrations (1, 5, 10 or 20 μg/ml) of Compound 1 for further 8 days. Fresh medium containing test agents was replaced at every 24 h. Finally, the wells were washed three times with PBS and fixed in methanol for 15 min. The cells were stained with Giemsa stain and observed under microscope. The image of the stained wells were captured digitally (Kodak Image Station 4000 mM, Carestream Health Inc., New Haven, Conn.) and number of colonies were counted and analyzed by using NIH Image J software.

[4] = tested on: DU145 prostate tumor cells; assay: MTT based cell proliferation assay, DU145; details: Homo sapiens, DU-145, read-out: Anti-tumor growth potential (IC50) in DU145
Experimental: (§2) MTT [3-(4,5-dimethylthiazol-2-yl)-2,5-diphenyltetrazolium bromide] incorporation based cell proliferation assay was performed using standard procedure. The cytotoxic efficacies of the various selenopheno triazene compounds (compounds 1 to 16) was evaluated in both human malignant melanoma A375 cells and mouse malignant melanoma B16 F0 cells by MTT cell proliferation assay kit (Roche Applied Sciences, Germany). The assay was carried out according to the instruction provided by the vendor. Briefly, equal numbers of cells was plated in 96-well flat-bottomed plates and were incubated with both DTIC and the test compounds (compounds 1 to 16) at various concentrations for a period of three days. Vehicle control culture wells received only a maximum of 0.5% DMSO. Thereafter, 0.5 mg/ml of MTT reagent was added to each well and the microplate was incubated further for 4 h at 37° C. in presence of 5% CO2. […] After complete solubilization of the formazan crystals, the absorbance was read at 540 nm in a microplate reader (BioRad, USA). […]
(§3) Anti-tumor growth potential of Compound 1 and DTIC were evaluated in various human tumor cells such as A549 lung tumor cells, DU145 prostate tumor cells, HT29 colon cancer cells and MCF-7 (ER^+) breast tumor cells in vitro, by using MTT based cell proliferation assay as described earlier (example 17). […]

[5] = tested on: mouse malignant melanoma B16 F0 cells; assay: MTT based cell proliferation assay, B16 F0 cells; details: for IC50: Mus musculus, B16F0, 72 h, MTT, three days incubation, read-out: Cell proliferation inhibition in B16F0 cells, IC50
Experimental: as §1

[6] = tested on: B16F0 mouse melanoma cells; assay: Matrigel cell invasion assay; assay type: cell-based; details: 24 h
Experimental: The inhibitory effects of DTIC and compound 1 on invasive ability of B16F0 were tested in cell invasion assay performed with by using Matrigel (BME-Cultrex®, R&D Systems, USA) coated cell culture inserts (Becton Dickinson, USA) with 8 μm-pore membrane. Equal number (fifty thousands) of B16F0 cells were applied in each insert well and allowed to attach for 2 h at 37° C. and in presence of 5% CO2. Thereafter, the cellular invasion through the matrigel layer was performed in presence or absence of test compounds. Either 100 μg/ml of DTIC or 20 μg/ml of Compound 1 was applied in the lower chamber of the invasion assembly. 0.1% DMSO was applied in the vehicle control culture chambers. After 24 h treatment, the matrigel layer containing cells was removed with cotton plug and the invaded cells on the other side of the membrane were fixed with methanol for 5 min and then stained with Giemsa. The stained membrane was mounted on a glass slide and number invaded cells were counted in 20 random fields (20× objective) under a light microscope (Nikon Eclipse TS 100).

[7] = tested on: HT29 colon cancer cells; assay: MTT based cell proliferation assay, HT29; details: Homo sapiens, HT-29, read-out: Anti-tumor growth potential (IC50) in HT29
Experimental: as §2, §3

[8] = tested on: A549 lung tumor cells; assay: MTT based cell proliferation assay, A549; details: Homo sapiens, read-out: Anti-tumor growth potential (IC50) in A549
Experimental: as §2, §3

Row | Compound | Inhibition in tumor growth, mouse melanoma xenograft model of C57B6J mice ([1]; 25 mg/kg daily intra-peritoneal) | IC50 [2] | Reduction in number of B16 colonies ([3]; at 1 μg/ml) | Reduction in number of B16 colonies ([3]; at 5 μg/ml) | Reduction in number of B16 colonies ([3]; at 10 μg/ml) | Reduction in number of B16 colonies ([3]; at 20 μg/ml) | IC50 [4] | Potency of inhibition relative to Dacarbazine, mouse melanoma B16 cells ([5]; MTT IC50 comparison) | IC50 [5] | B16 F0 melanoma tumor cell invasion vs vehicle control ([6]; 20 μg/ml, p=0.0017) | IC50 [7] | IC50 [8] | Inhibition in tumor growth, mouse melanoma xenograft model of C57B6J mice ([1]; 75 mg/kg daily intra-peritoneal) | inhibition at 100 µg/mL ([3]; Mus musculus, B16F0, 192 h, at 100 μg/ml, read-out: Inhibition of B16 colony formation (number of colonies)) | B16 F0 melanoma tumor cell invasion vs vehicle control ([6]; 100 μg/ml)
1 | Cc1[se]c(C(N)=O)cc1/N=N/N(C)C [Compound 1, 4-[(dimethylamino)diazenyl]-5-methylselenophene-2-carboxamide] | 31.2% | 9.81 µg/mL (≈ 37.9 µM) | 11% | 35% | 54% | 94% | 8.97 µg/mL (≈ 34.6 µM) | 5 times | 46.6 µg/mL (≈ 180 µM) | significantly reduced; also recorded: significantly inhibited the invasion | 13.3 µg/mL (≈ 51.3 µM) | 7.68 µg/mL (≈ 29.6 µM) | – | – | –
2 | CN(C)N=Nc1[nH]cnc1C(N)=O [DTIC, 5-(3,3-dimethyl-1-trizeno)-imidazole-4-carboxamide, reference compound] | – | 70.1 µg/mL (≈ 385 µM) | – | – | – | – | 58.5 µg/mL (≈ 321 µM) | – | 325 µg/mL (≈ 1790 µM) | – | 141 µg/mL (≈ 774 µM) | 95 µg/mL (≈ 521 µM) | 17% | 35.8% | could not significantly inhibit; also recorded: failed to inhibit the tumor cell invasion
